What was measured:
Assay type in all cases: in vivo
[1] = test system: winter barley (Hordeum vulgare); test: Test B postemergence plant response; conditions: for Barley plant response rating (0 to 100 scale): 62 g ai/ha, 0 is no effect, 13 to 15 days
Procedure, shortened: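 Plants grown in peat/vermiculite medium were sprayed postemergence at 2–18 cm height (1- to 4-leaf stage). After 13–15 days in the greenhouse, response was rated visually against untreated controls on a 0–100 scale (0 no effect, 100 complete control).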

[2] = test system: wheat (Triticum aestivum); test: Test A pre-/postemergence plant response
Procedure, shortened: (§1)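 Formulated test chemicals (non-phytotoxic solvent, surfactant) were sprayed onto soil right after planting and simultaneously onto young plants at one to two leaves, 2 to 10 cm tall. Plants stayed in the greenhouse about ten days; injury was then visually scored against untreated controls, from 0 (no effect) to 100 (complete control).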

[3] = test system: giant foxtail (Setaria faberii); test: Test A pre-/postemergence plant response
Procedure, shortened: as §1

[4] = test system: morningglory (Ipomoea spp.); test: Test A pre-/postemergence plant response
Procedure, shortened: as §1

[5] = test system: velvetleaf (Abutilon theophrasti); test: Test A pre-/postemergence plant response
Procedure, shortened: as §1

[6] = test system: pigweed (Amaranthus retroflexus); test: Test A pre-/postemergence plant response
Procedure, shortened: as §1

[7] = test system: large crabgrass (Digitaria sanguinalis); test: Test A pre-/postemergence plant response
Procedure, shortened: as §1

[8] = test system: barnyardgrass (Echinochloa crus-galli); test: Test A pre-/postemergence plant response
Procedure, shortened: as §1

corn (Zea mays) = test: Test A pre-/postemergence plant response
Procedure, shortened: as §1

rice (Oryza sativa) = test: Test B flooded paddy test; conditions: for Plant response rating, Flood, Rice: 250 g ai/ha, flooded paddy test, visual rating on 0 to 100 scale (0 no effect, 100 complete control) after 13 to 15 days; for Plant response rating, Rice: Flood (flooded paddy test), 62 g ai/ha, scale of 0 to 100 where 0 is no effect and 100 is complete control, 13 to 15 days
Procedure, shortened: (§2)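 Flooded-pot test: water raised to 3 cm above soil when treating, compound put in the water, level unchanged thereafter. Plants were at 2 leaves. Readout after 13 to 15 days, visual, relative to controls; 0 signifies no effect and 100 complete control.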

[9] = test system: ducksalad (Heteranthera limosa); test: Test B flooded paddy test; conditions: for Plant response rating, Flood, Ducksalad: 250 g ai/ha, flooded paddy test, visual rating on 0 to 100 scale (0 no effect, 100 complete control) after 13 to 15 days; for Plant response rating, Ducksalad: Flood (flooded paddy test), 62 g ai/ha, scale of 0 to 100 where 0 is no effect and 100 is complete control, 13 to 15 days
Procedure, shortened: as §2

[10] = test system: umbrella sedge (Cyperus difformis); test: Test B flooded paddy test; conditions: for Plant response rating, Flood, Sedge, Umbrella: 250 g ai/ha, flooded paddy test, visual rating on 0 to 100 scale (0 no effect, 100 complete control) after 13 to 15 days; for Plant response rating, Sedge, Umbrella: Flood (flooded paddy test), 62 g ai/ha, scale of 0 to 100 where 0 is no effect and 100 is complete control, 13 to 15 days
Procedure, shortened: as §2

[11] = test system: barnyardgrass (Echinochloa crus-galli); test: Test B flooded paddy test; conditions: for Plant response rating, Flood, Barnyardgrass: 250 g ai/ha, flooded paddy test, visual rating on 0 to 100 scale (0 no effect, 100 complete control) after 13 to 15 days; for Plant response rating, Barnyardgrass: Flood (flooded paddy test), 62 g ai/ha, scale of 0 to 100 where 0 is no effect and 100 is complete control, 13 to 15 days
Procedure, shortened: as §2

[12] = 31 g ai/ha, postemergence, scale 0 to 100, 0 is no effect, 100 is complete control
[13] = postemergence, 100 is complete control
[14] = Postemergence, 125 g ai/ha, scale 0 to 100 (0 no effect, 100 complete control)
[15] = Postemergence, 250 g ai/ha, scale 0 to 100 (0 no effect, 100 complete control)
[16] = Postemergence, 125 g ai/ha, 0 to 100 scale where 0 is no effect and 100 is complete control
[17] = Postemergence, 500 g ai/ha, 0 to 100 scale, 0 = no effect, 100 = complete control, approx. ten days
[18] = Preemergence, 125 g ai/ha, 0 to 100 scale, 0 = no effect, 100 = complete control
[19] = Preemergence, 500 g ai/ha, visual injury, 0 to 100 scale (0 no effect, 100 complete control), approx. ten days

COCCCn1c(-c2cccc(C)c2)ncc(C(=O)C2=C(O)CCCC2=O)c1=O [Compound 118, 5-[(2-hydroxy-6-oxo-1-cyclohexane-1-yl)carbonyl]-3-(3-methoxypropyl)-2-(3-methylphenyl)-4(3H)-pyrimidinone]
85: Plant response rating, Flood, Sedge, Umbrella [10]
100: Plant response rating, Morningglory [4, 16] | Plant response rating, Morningglory [4, 17] | Plant response rating, Velvetleaf [5, 16] | Plant response rating, Velvetleaf [5, 17] | Plant response rating, Pigweed [6, 16] | Plant response rating, Pigweed [6, 17] | Plant response rating, Pigweed [6, 19] | Plant response rating, Flood, Ducksalad [9] | Plant response rating, Ducksalad [9]
70: Plant response rating, Morningglory [4, 19] | Plant response rating, Velvetleaf [5, 18] | Plant response rating, Sedge, Umbrella [10] | Plant response rating, Flood, Barnyardgrass [11]
50: Plant response rating, Foxtail, Giant [3, 19] | Plant response rating, Barnyardgrass [11]
0: Plant response rating, Barley [1, 12] | Barley plant response rating (0 to 100 scale) [1, 13] | Plant response rating, Barley [1, 14] | Plant response rating, Barley [1, 15] | Plant response rating, Wheat [2, 16] | Plant response rating, Wheat [2, 18] | Plant response rating, Wheat [2, 19] | Plant response rating, Corn (corn (Zea mays); [16]) | Plant response rating, Corn (corn (Zea mays); [18]) | Plant response rating, Corn (corn (Zea mays); [19]) | Plant response rating, Rice (rice (Oryza sativa))
80: Plant response rating, Foxtail, Giant [3, 16] | Plant response rating, Velvetleaf [5, 19]
30: Plant response rating, Barnyardgrass [8, 18] | Plant response rating, Corn (corn (Zea mays); [17])
10: Plant response rating, Wheat [2, 17] | Plant response rating, Foxtail, Giant [3, 18] | Plant response rating, Morningglory [4, 18]
90: Plant response rating, Foxtail, Giant [3, 17] | Plant response rating, Pigweed [6, 18] | Plant response rating, Crabgrass, Large [7, 16] | Plant response rating, Crabgrass, Large [7, 17] | Plant response rating, Crabgrass, Large [7, 19] | Plant response rating, Barnyardgrass [8, 16] | Plant response rating, Barnyardgrass [8, 17] | Plant response rating, Barnyardgrass [8, 19]
15: Plant response rating, Flood, Rice (rice (Oryza sativa))
60: Plant response rating, Crabgrass, Large [7, 18]

COCCn1c(-c2cc(F)cc(F)c2)ncc(C(=O)C2=C(O)CCCC2=O)c1=O [Compound 119]
50: Plant response rating, Wheat [2, 16] | Plant response rating, Flood, Barnyardgrass [11]
75: Plant response rating, Flood, Sedge, Umbrella [10]
100: Plant response rating, Foxtail, Giant [3, 19] | Plant response rating, Morningglory [4, 17] | Plant response rating, Velvetleaf [5, 16] | Plant response rating, Velvetleaf [5, 17] | Plant response rating, Velvetleaf [5, 19] | Plant response rating, Pigweed [6, 16] | Plant response rating, Pigweed [6, 17] | Plant response rating, Pigweed [6, 18] | Plant response rating, Pigweed [6, 19] | Plant response rating, Crabgrass, Large [7, 18] | Plant response rating, Crabgrass, Large [7, 19] | Plant response rating, Barnyardgrass [8, 19]
60: Plant response rating, Wheat [2, 17] | Plant response rating, Wheat [2, 19] | Plant response rating, Morningglory [4, 18]
70: Plant response rating, Foxtail, Giant [3, 16] | Plant response rating, Barnyardgrass [8, 18] | Plant response rating, Corn (corn (Zea mays); [17]) | Plant response rating, Flood, Ducksalad [9]
25: Plant response rating, Sedge, Umbrella [10]
80: Plant response rating, Crabgrass, Large [7, 16] | Plant response rating, Barnyardgrass [8, 16]
30: Plant response rating, Corn (corn (Zea mays); [19]) | Plant response rating, Ducksalad [9] | Plant response rating, Barnyardgrass [11]
35: Plant response rating, Flood, Rice (rice (Oryza sativa))
20: Plant response rating, Wheat [2, 18] | Plant response rating, Corn (corn (Zea mays); [18]) | Plant response rating, Rice (rice (Oryza sativa))
90: Plant response rating, Foxtail, Giant [3, 17] | Plant response rating, Foxtail, Giant [3, 18] | Plant response rating, Morningglory [4, 16] | Plant response rating, Morningglory [4, 19] | Plant response rating, Velvetleaf [5, 18] | Plant response rating, Crabgrass, Large [7, 17] | Plant response rating, Barnyardgrass [8, 17]
0: Plant response rating, Barley [1, 12] | Barley plant response rating (0 to 100 scale) [1, 13] | Plant response rating, Corn (corn (Zea mays); [16])
5: Plant response rating, Barley [1, 14] | Plant response rating, Barley [1, 15]

COCCCn1c(-c2cc(F)cc(F)c2)ncc(C(=O)C2=C(O)CCCC2=O)c1=O [Compound 120]
20: Plant response rating, Wheat [2, 16] | Plant response rating, Corn (corn (Zea mays); [18]) | Plant response rating, Barnyardgrass [11]
65: Plant response rating, Flood, Barnyardgrass [11]
0: Plant response rating, Wheat [2, 18] | Plant response rating, Rice (rice (Oryza sativa))
50: Plant response rating, Corn (corn (Zea mays); [17])
75: Plant response rating, Flood, Sedge, Umbrella [10]
90: Plant response rating, Foxtail, Giant [3, 17] | Plant response rating, Foxtail, Giant [3, 18] | Plant response rating, Morningglory [4, 19] | Plant response rating, Pigweed [6, 16] | Plant response rating, Crabgrass, Large [7, 16] | Plant response rating, Barnyardgrass [8, 16] | Plant response rating, Barnyardgrass [8, 17]
85: Plant response rating, Flood, Ducksalad [9]
70: Plant response rating, Wheat [2, 17] | Plant response rating, Wheat [2, 19] | Plant response rating, Barnyardgrass [8, 18]
100: Plant response rating, Foxtail, Giant [3, 19] | Plant response rating, Morningglory [4, 16] | Plant response rating, Morningglory [4, 17] | Plant response rating, Velvetleaf [5, 16] | Plant response rating, Velvetleaf [5, 17] | Plant response rating, Velvetleaf [5, 19] | Plant response rating, Pigweed [6, 17] | Plant response rating, Pigweed [6, 18] | Plant response rating, Pigweed [6, 19] | Plant response rating, Crabgrass, Large [7, 17] | Plant response rating, Crabgrass, Large [7, 18] | Plant response rating, Crabgrass, Large [7, 19] | Plant response rating, Barnyardgrass [8, 19]
80: Plant response rating, Foxtail, Giant [3, 16] | Plant response rating, Velvetleaf [5, 18]
5: Barley plant response rating (0 to 100 scale) [1, 13] | Plant response rating, Barley [1, 14] | Plant response rating, Barley [1, 15]
40: Plant response rating, Flood, Rice (rice (Oryza sativa)) | Plant response rating, Sedge, Umbrella [10]
10: Plant response rating, Corn (corn (Zea mays); [16])
30: Plant response rating, Morningglory [4, 18] | Plant response rating, Corn (corn (Zea mays); [19]) | Plant response rating, Ducksalad [9]

— patent US8952024B2, “Herbicidal pyrimidone derivatives” (E I du Pont de Nemours and Company, priority 2009, dated 2015)
